# Measurements: patent US10093611B2, “Benzocycloalkenes as antifungal agents” (Bayer Intellectual Property GmbH, priority 2010, dated 2018)
# Key:
# [1] = tested on: Leptosphaeria nodorum; assay: In vivo preventive test on Leptosphaeria nodorum (wheat); settings: 500 ppm of active ingredient, evaluated 8 days after inoculation
# Experimental: EXAMPLE D: IN VIVO PREVENTIVE TEST ON LEPTOSPHAERIA NODORUM (WHEAT) Solvent: 49 parts by weight of N,N-dimethylacetamide Emulsifier: 1 part by weight of alkylaryl polyglycol ether To produce a suitable preparation of active compound, 1 part by weight of active compound or the compound combination is mixed with the stated amounts of solvent and emulsifier, and the concentrate is diluted with water to the desired concentration. To test for protective activity, young plants are sprayed with a preparation of active compound or active compound combination at the stated rate of application. After the spray coating has dried on, the plants are sprayed with a spore suspension of Leptosphaeria nodorum. The plants remain for 48 hours in an incubation cabinet at 20° C. and a relative atmospheric humidity of 100%. The plants are placed in a greenhouse at a temperature of approximately 22° C. and a relative atmospheric humidity of approximately 80%. The test is evaluated 8 days after the inoculation. 0% means an efficacy which corresponds to that of the control, while an efficacy of 100% means that no disease is observed. Under these conditions, good (at least 75%) to total protection is observed at a dose of 500 ppm of active ingredient with the following compounds from table D: Under the same conditions, excellent protection (greater than 94%) is observed at a dose of 500 ppm of active ingredient with compound 2, whereas poor protection (less than 30%) is observed with the isosteric analogue compound CMP1 claimed in WO-2009/016218 as in table D2.
# [2] = tested on: Fusarium nivale (var. majus); assay: In vivo curative test on Fusarium nivale (var. majus) (wheat); settings: 500 ppm of active ingredient, evaluated 5 days after inoculation
# Experimental: EXAMPLE C: IN VIVO CURATIVE TEST ON FUSARIUM NIVALE (VAR. MAJUS) (WHEAT) Solvent: 49 parts by weight of N,N-dimethylacetamide Emulsifier: 1 part by weight of alkylaryl polyglycol ether To produce a suitable preparation of active compound, 1 part by weight of active compound or active compound combination is mixed with the stated amounts of solvent and emulsifier, and the concentrate is diluted with water to the desired concentration. To test for curative activity, young plants are slightly injured by using a sandblast and afterwards they are sprayed with a conidia suspension of Fusarium nivale (var. majus) and placed for 24 hours in a greenhouse under a translucent incubation cabinet at a temperature of approximately 10° C. and a relative atmospheric humidity of approximately 100% and are subsequently sprayed with the preparation of active compound at the stated rate of application. After the spray coating has been dried, the plants remain in the greenhouse under translucent incubation cloches at a temperature of approximately 10° C. and a relative atmospheric humidity of approximately 100%. The test is evaluated 5 days after the inoculation. 0% means an efficacy which corresponds to that of the untreated control, while an efficacy of 100% means that no disease is observed. Under these conditions, total protection is observed at a dose of 500 ppm of active ingredient with the following compounds from table C: […]
# [3] = tested on: Pyrenophora teres; assay: In vivo preventive test on Pyrenophora teres (barley); settings: 500 ppm of active ingredient, evaluated 7-9 days after inoculation
# Experimental: EXAMPLE F: IN VIVO PREVENTIVE TEST ON PYRENOPHORA TERES (BARLEY) Solvent: 49 parts by weight of N,N-dimethylformamide Emulsifier: 1 part by weight of Alkylarylpolyglycolether To produce a suitable preparation of active compound, 1 part by weight of active compound is mixed with the stated amounts of solvent and emulsifier, and the concentrate is diluted with water to the desired concentration. To test for preventive activity, young plants are sprayed with the preparation of active compound at the stated rate of application. One day after this treatment, the plants are inoculated with an aqueous spore suspension of Pyrenophora teres. The plants remain for 48 hours in an incubation cabinet at 22° C. and a relative atmospheric humidity of 100%. Then the plants are placed in a greenhouse at a temperature of approximately 20° C. and a relative atmospheric humidity of approximately 80%. The test is evaluated 7-9 days after the inoculation. 0% means an efficacy which corresponds to that of the untreated control while an efficacy of 100% means that no disease is observed. Under these conditions, high (at least 90%) to total protection is observed at a dose of 500 ppm of active ingredient with the following compounds from table F: […]
# [4] = tested on: Septoria tritici; assay: In vivo preventive test on Septoria tritici (wheat); settings: 500 ppm of active ingredient, evaluated 21 days after inoculation
# Experimental: EXAMPLE G: IN VIVO PREVENTIVE TEST ON SEPTORIA TRITICI (WHEAT) Solvent: 49 parts by weight of N,N-dimethylacetamide Emulsifier: 1 part by weight of alkylaryl polyglycol ether To produce a suitable preparation of active compound, 1 part by weight of active compound or active compound combination is mixed with the stated amounts of solvent and emulsifier, and the concentrate is diluted with water to the desired concentration. To test for preventive activity, young plants are sprayed with the preparation of active compound or active compound combination at the stated rate of application. After the spray coating has dried on, the plants are sprayed with a spore suspension of Septoria tritici. The plants remain for 48 hours in an incubation cabinet at approximately 20° C. and a relative atmospheric humidity of approximately 100% and then 60 hours at approximately 15° C. in a translucent incubation cabinet at a relative atmospheric humidity of approximately 100%. The plants are placed in a greenhouse at a temperature of approximately 15° C. and a relative atmospheric humidity of approximately 80%. The test is evaluated 21 days after the inoculation. 0% means an efficacy which corresponds to that of the control, while an efficacy of 100% means that no disease is observed. Under these conditions, total protection is observed at a dose of 500 ppm of active ingredient with the following compounds from table G: […]
# [5] = tested on: Puccinia triticina; assay: In vivo preventive test on Puccinia triticina (wheat); settings: 500 ppm of active ingredient, evaluated 8 days after inoculation
# Experimental: EXAMPLE E: IN VIVO PREVENTIVE TEST ON PUCCINIA TRITICINA (WHEAT)
# Solvent: 49 parts by weight of N,N-dimethylacetamide
# Emulsifier: 1 part by weight of alkylaryl polyglycol ether
# To produce a suitable preparation of active compound, 1 part by weight of active compound or active compound combination is mixed with the stated amounts of solvent and emulsifier, and the concentrate is diluted with water to the desired concentration.
# To test for preventive activity, young plants are sprayed with the preparation of active compound or active compound combination at the stated rate of application.
# After the spray coating has been dried, the plants are sprayed with a spore suspension of Puccinia triticina. The plants remain for 48 hours in an incubation cabinet at approximately 20° C. and a relative atmospheric humidity of approximately 100%.
# The plants are placed in the greenhouse at a temperature of approximately 20° C. and a relative atmospheric humidity of approximately 80%.
# The test is evaluated 8 days after the inoculation. 0% means an efficacy which corresponds to that of the untreated control, while an efficacy of 100% means that no disease is observed.
# Under these conditions, high (at least 85%) to total protection is observed at a dose of 500 ppm of active ingredient with the following compounds from table E: […]
structure (smiles),measurement,setting,value
Cc1nn(C)c(F)c1C(=O)N(C1CC1)C(C)C1Cc2ccccc2C1 (stereo not drawn) [Example 11],Efficacy,[1],100%
same,Efficacy,[2],100%
same,Efficacy,[3],100%
same,Efficacy,[4],100%
same,Efficacy,[5],100%
CCc1nn(C)c(F)c1C(=O)N(C1CC1)C(C)C1Cc2ccccc2C1 (stereo not drawn) [Example 12],Efficacy,[1],100%
same,Efficacy,[2],100%
same,Efficacy,[3],100%
same,Efficacy,[4],100%
same,Efficacy,[5],100%
CC(C1Cc2ccccc2C1)N(C(=O)c1cn(C)nc1C(F)F)C1CC1 (stereo not drawn) [Example 13],Efficacy,[1],100%
same,Efficacy,[2],100%
same,Efficacy,[3],100%
same,Efficacy,[4],100%
same,Efficacy,[5],100%
"CC(C1Cc2ccccc2C1)N(C(=O)c1c(C(F)F)nn(C)c1F)C1CC1 (stereo not drawn) [Example 14, N-cyclopropyl-3-(difluoromethyl)-N-[1-(indan-2-yl)ethyl]-5-fluoro-1-methyl-1H-pyrazole-4-carboxamide]",Efficacy,[1],100%
same,Efficacy,[2],100%
same,Efficacy,[3],100%
same,Efficacy,[4],100%
same,Efficacy,[5],100%
CC(C1CCc2ccccc2C1)N(C(=O)c1c(C(F)F)nn(C)c1F)C1CC1 (stereo not drawn) [Example 16],Efficacy,[1],86%
same,Efficacy,[2],100%
same,Efficacy,[3],100%
same,Efficacy,[4],100%
same,Efficacy,[5],100%
CCC(C1CCc2ccccc2C1)N(C(=O)c1c(C(F)F)nn(C)c1F)C1CC1 (stereo not drawn) [Example 17],Efficacy,[1],80%
same,Efficacy,[2],100%
same,Efficacy,[3],100%
same,Efficacy,[4],100%
same,Efficacy,[5],88%
